The source of these data is PubChem BioAssay AID1996.

In brackets after ≈: the same amount, converted by molar mass.

The conditions of the data set: buffer; pH 7.4; 200.0 µM.
`O=C(COC(=O)c1ccccc1Br)NCc1cccs1` had a kinetic solubility above 53.1 µg/mL.
The compound `COc1ccccc1CNS(=O)(=O)c1ccc(Br)s1` displayed a solubility (kinetic) of 32.4 µg/mL (≈ 89.4 µM).
Compound `COc1ccc(NS(=O)(=O)c2ccc(O)c([N+](=O)[O-])c2)cc1S(=O)(=O)N1CCCCC1` came in with a kinetic solubility above 70.7 µg/mL.
Compound `COC(=O)CC1C(=O)NCCN1C(=S)Nc1ccccc1Cl` (stereo not drawn) gave a kinetic solubility above 51.3 µg/mL.
Then `CCC(C)(C)NC(=O)CN(C(=O)c1ccc(N2CCCC2)nc1)c1ccc(F)cc1`, with 60.7 µg/mL (≈ 147 µM).
Under `CC(C)NCC(O)COCCOc1ccc(Cl)cc1.Cl` (stereo not drawn) stands above 48.6 µg/mL; under `N#Cc1ccccc1NC(=S)NC(=O)c1cccnc1`, 28.9 µg/mL (≈ 102 µM).
`Cc1ccc(N=C2CSC(=O)N2)cc1`: the kinetic solubility amounted to 23.4 µg/mL (≈ 113 µM).
In the case of `Cn1c2ccccc2n2c(=O)cc(-c3ccccc3)c(C#N)c12`, the solubility (kinetic) was below 0.2 µg/mL.
Regarding `O=C(NCc1ccco1)C1CCCN1C(=O)Nc1ccc(Cl)cc1` (stereo not drawn), the kinetic solubility was determined as 3.4 µg/mL (≈ 9.78 µM).
Turning to `CCOC(=O)Cc1csc(N(C)C)n1`, the kinetic solubility stood at 25.4 µg/mL (≈ 119 µM). Compared with the last compound, the solubility kinetic is about 7.5-fold higher.
In the case of `S=C(c1ccc(-c2ccc(Br)cc2)o1)N1CCCCC1`, the solubility (kinetic) is below 0.8 µg/mL.
Turning to `CCOC(=O)c1c(O)c(O)c(C(=O)OCC)n1-c1ccccc1`, the kinetic solubility was above 47.9 µg/mL.
As for `CC1CCCC(NC(=O)CSc2ccc(F)cc2)C1C` (stereo not drawn), the solubility (kinetic) stood at 2.8 µg/mL (≈ 9.48 µM).
`Cc1cc(C)c(NC(=O)C2CC3CCC2C3)c(C)c1` (stereo not drawn): the kinetic solubility is 10.1 µg/mL (≈ 39.2 µM). This solubility kinetic lies about 3.6-fold higher than the previous one.
Take `CCOC(=O)C1=C(C)NC(=O)CC1c1cc2c(cc1[N+](=O)[O-])OCO2` (stereo not drawn): the solubility (kinetic) was 3.3 µg/mL (≈ 9.47 µM).
Then `NC(=O)c1ccc(NC(=O)COC(=O)CCC2CCCCC2)cc1`, with 9.1 µg/mL (≈ 27.4 µM); and `Cc1ccccc1NC(=O)COC(=O)[C@@H]1CCCN1C(=O)c1cccs1`, with above 55.9 µg/mL; and `Cc1cnc(C(=O)NC(Cc2ccccc2)c2ccccc2)cn1` (stereo not drawn), with 0.9 µg/mL (≈ 2.84 µM).
Under `Cc1cc(=O)[nH]c(SCC(=O)NC2CCCCC2)n1` stands 32.3 µg/mL (≈ 115 µM); under `O=C(c1cccc(S(=O)(=O)NCc2ccccc2)c1)N1CCCC1`, above 51.7 µg/mL.
Compound `Cc1ccc(NC(=O)COC(=O)c2ccc(NC(=O)CC#N)cc2)cc1S(=O)(=O)N1CCOCC1` gave a kinetic solubility of 23.6 µg/mL (≈ 47.1 µM).
In turn, `COc1ccc(C)cc1NC(=O)NC1CCCCCCC1` returned a kinetic solubility below 0.3 µg/mL.
As to `O=C(NC1CCCCNC1=O)c1ccco1` (stereo not drawn), the kinetic solubility was above 33.3 µg/mL.
Compound `COc1ccc(S(=O)(=O)N[C@@H](CSCc2ccccc2)C(=O)O)cc1` showed a solubility (kinetic) above 57.2 µg/mL.
`CC(OC(=O)c1ccncc1)C(=O)Nc1cccc([N+](=O)[O-])c1` (stereo not drawn) showed a kinetic solubility above 47.3 µg/mL.
Regarding `O=C(NC1CCN(C(=S)NCCc2ccccc2)CC1)C1CC1`, the solubility (kinetic) was 10.7 µg/mL (≈ 32.3 µM).
`Cc1cc(-c2ccccc2)c2c(n1)sc1c(O)cc(=O)[nH]c12` yielded a kinetic solubility above 46.3 µg/mL.
In the case of `CNC(=O)c1c(NC(=O)C2=COCCO2)sc(C)c1C`, the kinetic solubility is above 44.5 µg/mL.
The compound `CC(C)CNc1nc(N)c([N+](=O)[O-])c(NC2CCCCC2)n1` registered a kinetic solubility below 0.1 µg/mL.
`CNS(=O)(=O)Cc1ccc2[nH]cc(CCN(C)C)c2c1` displayed a kinetic solubility of 40.3 µg/mL (≈ 136 µM).
In turn, `Cc1ccc(NC(=O)Cn2c(C)csc2=O)cc1` displayed a solubility (kinetic) above 39.3 µg/mL.
Regarding `CCN(c1ccccc1)S(=O)(=O)c1ccc(C(=O)N(C)Cc2cccs2)cc1`, the kinetic solubility is 20.9 µg/mL (≈ 50.4 µM).
On to `Cc1onc(-c2ccccc2)c1C(=O)/C=C/N(C)C`, for which the solubility (kinetic) was 36.4 µg/mL (≈ 142 µM).
Compound `Cc1cc(C)cc(NC(=S)Nc2cccc3ccccc23)c1` returned a solubility (kinetic) of 1.1 µg/mL (≈ 3.59 µM). This solubility kinetic lies about 33-fold lower than the previous one.
Compound `Cc1ccc(C)c(C(=O)CCC(=O)Nc2ccc(F)cc2)c1` registered a kinetic solubility of 1 µg/mL (≈ 3.34 µM).
Take `O=C(Cc1ccccc1)NCC(=O)N/N=C/c1cccnc1`: the kinetic solubility was above 44.4 µg/mL.
Then `Cc1[nH]c2ccccc2c1C(C[N+](=O)[O-])c1ccco1` (stereo not drawn), with 37.9 µg/mL (≈ 140 µM); and `Cc1ccc(NC(=O)C2CCN(C(=O)c3cccs3)CC2)c(C)c1`, with 36.6 µg/mL (≈ 107 µM).
`CCOc1ccc(C(C)=O)cc1Cn1ccsc1=N.Cl` registered a kinetic solubility above 46.9 µg/mL.
`CCOc1ccc(C(=O)Nc2ccc3c(c2)OCCO3)cc1`: the solubility (kinetic) was below 0.6 µg/mL.
The compound `O=S(=O)(c1ccc2oc(=S)[nH]c2c1)N1CCCCC1` showed a kinetic solubility above 44.8 µg/mL.
With `O=C1N(c2ccccc2)C(c2cccnc2)N2CCCN12` (stereo not drawn), the solubility (kinetic) is above 42 µg/mL.
Regarding `Nc1ncnc(Oc2cccc(C(F)(F)F)c2)c1[N+](=O)[O-]`, the solubility (kinetic) worked out at 7.6 µg/mL (≈ 25.3 µM).
Then `CCN(CC)C(=O)C1CCCN(Cc2nc(-c3cnccn3)no2)C1` (stereo not drawn), with 40.4 µg/mL (≈ 117 µM).
Then `Cc1ccc(NC(=O)COC(=O)CC2CC3CCC2C3)cc1S(=O)(=O)N1CCOCC1` (stereo not drawn), with 10.2 µg/mL (≈ 22.6 µM); and `C/C=C/C(=O)Nc1ccc(N2CCN(c3ccc(C(F)(F)F)cn3)CC2)nc1`, with below 0.2 µg/mL; and `O=S(=O)(c1ccc2ncn(O)c2c1)N1CCOCC1`, with above 42.5 µg/mL.
`COc1ccc(OC)c(N/C=C/C(=O)c2ccccc2)c1` gave a kinetic solubility of 2.1 µg/mL (≈ 7.41 µM).
Take `Cc1nnc(SCC(=O)NC2CC2)s1`: the kinetic solubility was above 34.4 µg/mL.
For the compound `CC1CC(C)CN(S(=O)(=O)c2ccc3oc(=O)ccc3c2)C1` (stereo not drawn), the solubility (kinetic) was found to be 14 µg/mL (≈ 43.6 µM).
In the case of `CC(=O)Nc1cccc(NS(=O)(=O)c2c(C)noc2C)c1`, the solubility (kinetic) is above 46.4 µg/mL.
For `CSc1ccccc1NC(=O)C1CC(c2ccccc2Cl)=NO1` (stereo not drawn), the solubility (kinetic) turned out to be 0.8 µg/mL (≈ 2.31 µM).
Then `CC1CC(=O)Nc2ccccc2N1S(=O)(=O)c1cccc(F)c1` (stereo not drawn), with 30 µg/mL (≈ 89.7 µM); and `O=C(NC(=S)NCc1nc2ccccc2[nH]1)c1ccc(F)cc1`, with 45.3 µg/mL (≈ 138 µM); and `Nn1c(-c2ccccc2)nc2ccccc2c1=O`, with above 35.6 µg/mL.
The compound `O=C(NC1CCN(Cc2ccccc2)CC1)c1ccccc1` yielded a solubility (kinetic) above 44.2 µg/mL.
`CCOc1ccc(S(=O)(=O)/N=C(/Nc2ccc(C)c(S(=O)(=O)N3CCOCC3)c2)c2ccccc2)cc1` registered a kinetic solubility of 7.9 µg/mL (≈ 14.5 µM).
As for `CCc1nc2sc(C(=O)O)c(N)c2c2c1CCCC2`, the solubility (kinetic) was above 41.5 µg/mL.
Compound `CCOC(=O)c1sc(NC(=O)CC(C)c2ccccc2)nc1C` (stereo not drawn) gave a kinetic solubility below 0.4 µg/mL.
Then `O=[N+]([O-])c1c(NCc2ccco2)ccc2nonc12`, with 38.4 µg/mL (≈ 148 µM).
Consider `CC1CC1C(=O)Nc1nc(-c2ccc(Cl)s2)cs1` (stereo not drawn), for which the kinetic solubility stood at 0.6 µg/mL (≈ 2.01 µM). This solubility kinetic is about 64-fold lower than that of the compound before.
On to `Cc1ccccc1NC(=S)NCc1ccc(F)cc1`, for which the solubility (kinetic) is above 41.2 µg/mL.
Then `Cc1ccc(OCC(=O)N2CCN(S(C)(=O)=O)CC2)cc1`, with above 46.9 µg/mL.
The compound `OCC1(CO)COC(/C=C/c2ccccc2)=N1` displayed a solubility (kinetic) above 35 µg/mL.
The compound `COC(=O)c1nc(-c2ccccc2)oc1N1CCOCC1` registered a kinetic solubility above 43.2 µg/mL.
For `COc1ccccc1C(=O)Nc1nc(C)cc(C)n1`, the solubility (kinetic) is 31.7 µg/mL (≈ 123 µM).
Turning to `CCC1(CC)NC(=O)N(CC(=O)Nc2ccc(C)cc2C)C1=O`, the kinetic solubility is above 47.6 µg/mL.
Under `Cc1ccc(SCc2nc3ncccn3c2Br)cc1` stands above 50.1 µg/mL.
As to `CCC(=O)c1cn(CC(=O)Nc2ccccc2Cl)c2ccccc12`, the kinetic solubility was 0.8 µg/mL (≈ 2.35 µM).
Then `COCC(C)N1C(=O)Cc2c1nc(N)c1c(N)nc(N3CCN(c4ccccc4F)CC3)c(C#N)c21` (stereo not drawn), with 1.7 µg/mL (≈ 3.47 µM).
Then `COc1ccccc1CNC(=O)CCN1C(=O)c2ccccc2C1=O`, with above 50.8 µg/mL.
Under `COc1cc(NC(=S)Nc2ccc3c(c2)OCCO3)cc(OC)c1OC` stands above 56.5 µg/mL.
